In this experiment the target is Toll-like receptor 2 (Homo sapiens, UniProt O60603). As to the kind of experiment: LR2 Assays. Here is the method: Next, 50 μL of an approximate 3×EC50 concentration of each agonist (Pam2CSK4 or Pam3CSK4) was added to the wells containing test compounds or the vehicle control. The plates were then incubated at 37° C./5% CO2 for 18 h. For each assay run, non-treated HEK-Blue hTLR2 cells were treated with serial dilutions of agonists to determine EC50 values for the respective run. On day 2, secreted alkaline phosphatase (SEAP) activity was detected in cell culture supernatants. In brief, 20 μL was collected from each well and transferred to a 96-well plate. Next, 200 μL of Quanti-Blue detection reagent was added to each well. […] IC50 values were calculated based on 8-point dilutions for each compound.
Toll-like receptor 2, sequence (O60603 whole entry): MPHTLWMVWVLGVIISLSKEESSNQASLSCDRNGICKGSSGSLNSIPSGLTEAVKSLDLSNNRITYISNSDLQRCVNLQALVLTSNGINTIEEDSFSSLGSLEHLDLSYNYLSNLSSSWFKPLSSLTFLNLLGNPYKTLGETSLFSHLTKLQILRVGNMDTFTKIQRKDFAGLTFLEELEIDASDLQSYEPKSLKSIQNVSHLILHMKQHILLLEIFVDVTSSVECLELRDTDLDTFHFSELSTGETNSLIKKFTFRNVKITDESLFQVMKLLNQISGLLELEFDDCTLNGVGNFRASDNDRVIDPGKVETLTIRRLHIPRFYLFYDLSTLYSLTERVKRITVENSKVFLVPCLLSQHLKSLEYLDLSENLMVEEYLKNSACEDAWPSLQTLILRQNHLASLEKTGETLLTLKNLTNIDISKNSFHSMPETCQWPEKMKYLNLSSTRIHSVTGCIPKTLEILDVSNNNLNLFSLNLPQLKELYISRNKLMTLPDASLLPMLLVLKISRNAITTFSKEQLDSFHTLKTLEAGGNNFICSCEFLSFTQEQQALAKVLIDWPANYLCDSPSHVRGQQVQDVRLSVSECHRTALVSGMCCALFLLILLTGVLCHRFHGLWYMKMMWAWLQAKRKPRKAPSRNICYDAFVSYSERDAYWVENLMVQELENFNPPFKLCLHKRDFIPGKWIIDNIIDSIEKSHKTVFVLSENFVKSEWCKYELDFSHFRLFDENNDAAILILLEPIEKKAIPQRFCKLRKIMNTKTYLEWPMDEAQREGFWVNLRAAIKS

A word on the IC50: it is the concentration that inhibits the measured activity by half. Lower therefore signals inhibition by little substance.

Molecule `O=Cc1cc(NC(=O)c2csc(N3CCCCC3)n2)cc(F)c1O` [US20240043395, Compound 9] had a half-maximal inhibitory concentration (IC50) of 5.2 µM.

The values are drawn from BindingDB's records for patent US20240043395 (Neuropore Therapies, 2024).
